Here are results for two compounds from patent US20050202511A1, “AMP-activated protein kinase (AMPK) inhibitor screening assay” (priority 2002, published 2005).

Assay [1] has as its target T1, IMPDH2 CBS1-2 (WT) (Homo sapiens, UniProt P12268).
T1 construct: DNAs encoding residues 112-232 or the full-length protein (1-514) were amplified; His tag (pHAT20 vector); made in house; host or cells: E. coli
The experiment in a line: Filter binding assay, isolated CBS domain pair. As to conditions: single-site model. The source says: To examine whether binding of adenine nucleotides is a general function for CBS domains, or is specific to the γ subunits of AMPK, IMP dehydrogenase (IMPDH) was also studied. Retinitis pigmentosa can be caused by an R224P mutation in the second CBS domain of the IMPDH1 isoform (27). However, the IMPDH2 isoform is 84% identical in amino acid sequence with IMPDH1, and the arginine mutated in retinitis pigmentosa is conserved. Because the IMPDH2 isoform is ubiquitously expressed and a suitable cDNA to use as a template for PCR was more readily available, DNA encoding the single pair of CBS domains from human IMPDH2 was cloned, an R224P mutation was created and expressed both the wild type and the mutant as His-tagged proteins in E. coli.
For IMPDH2, DNAs encoding residues 112-232 or the full-length protein (1-514) were amplified using human liver cDNA (Clontech) as template, and cloned into pHAT20 (Clontech) using 5′-AgeI and 3′-KpnI sites added to the primers. For the other constructs, DNAs encoding residues 582-840 of CLC2, or 416-551 of cystathionine â-synthase, were amplified using human liver cDNA as template, and cloned into pGEX-KG as above using 5′-BamHI and 3′-XhoI sites added to the primers. All mutations were created using the Stratagene QuikChange Site-directed Mutagenesis system.
The IMPDH2 constructs were His-tagged and were purified on chelating-Sepharose (Pharmacia) charged with 50 mM CoCl2 according to manufacturer's instructions.
Various concentrations of [^14C]-AMP, [γ^32P] […] Reactions were stopped by spotting 10 ìl onto a Millipore MF Filter Membrane disc and rapidly washing under high vacuum with 1 ml of ice-cold TBS. Radioactivity was determined on the filters by scintillation counting. Non-specific binding (which was trivial) was determined by performing the assay with GST as a control, and was subtracted. […] Data were fitted to the binding models given in the text, using GraphPad Prism 3. […]

In assay [2] the target is T2, AMPK-γ2 CBS1-2 (WT) (Homo sapiens, UniProt Q9UGJ0).
T2 construct: the N-terminal pair (CBS1-2, residues 274-410); made in house; host or cells: E. coli BL21 (DE3)
T2 sequence (Q9UGJ0 274-410): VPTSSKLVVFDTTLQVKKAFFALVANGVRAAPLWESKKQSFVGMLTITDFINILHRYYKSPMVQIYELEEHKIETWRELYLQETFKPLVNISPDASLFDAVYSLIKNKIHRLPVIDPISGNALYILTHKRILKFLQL
Briefly: Filter binding assay, GST-CBS domain fusion. The source says: (§1) The boundaries of the CBS domains were taken from the alignments by Bateman. Using a plasmid encoding human γ2 as the template, PCR was used to produce DNAs encoding all four CBS domains (CBS1-4, residues 274-569), the N-terminal pair (CBS1-2, residues 274-410) or the C-terminal pair (CBS3-4, residues 430-556). The PCR primers had been designed to create BamHI and XhoI sites at the ends, and these were used to insert them into a vector that created a fusion protein with glutathione-S-transferase at the N-terminal end followed by a hexaglycine spacer, with the CBS domains at the C-terminus. All three constructs were expressed in E. coli and could be purified on glutathione-Sepharose as soluble proteins of the expected sizes in good yield (CBS1-4, 61 kDa, 5 mg/L of culture; CBS1-2, 43 kDa, 2 mg/L; CBS3-4, 43 kDa, 2 mg/L).
Site-directed mutagenesis was used to create the point mutation in CBS1 that causes hereditary heart disease (R302Q).
(§2) Various concentrations of [^14C]-AMP, [γ^32P] […] Reactions were stopped by spotting 10 ìl onto a Millipore MF Filter Membrane disc and rapidly washing under high vacuum with 1 ml of ice-cold TBS. Radioactivity was determined on the filters by scintillation counting. Non-specific binding (which was trivial) was determined by performing the assay with GST as a control, and was subtracted. […] Data were fitted to the binding models given in the text, using GraphPad Prism 3. Estimates of parameters resulting from fits are quoted in the text and Table 1±standard error, and the curves shown in figures are theoretical curves obtained using those estimates.

For assay [3], the target named is T3, AMPK-γ2 CBS1-4 (WT) (Homo sapiens, UniProt Q9UGJ0).
T3 construct: all four CBS domains (CBS1-4, residues 274-569); made in house; host or cells: E. coli BL21 (DE3)
T3 sequence (Q9UGJ0 274-569): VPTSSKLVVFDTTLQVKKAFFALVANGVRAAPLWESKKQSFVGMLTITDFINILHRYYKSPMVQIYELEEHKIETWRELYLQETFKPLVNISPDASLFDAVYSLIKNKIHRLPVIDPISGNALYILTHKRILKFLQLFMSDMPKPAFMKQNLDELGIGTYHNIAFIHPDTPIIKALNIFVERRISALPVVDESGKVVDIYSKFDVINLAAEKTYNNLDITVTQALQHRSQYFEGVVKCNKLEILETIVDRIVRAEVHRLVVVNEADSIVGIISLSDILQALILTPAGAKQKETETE
Briefly: Filter binding assay, GST-CBS domain fusion. As to conditions: for Kd: two site Hill plot model, read-out: B0.5 (concentration giving half-maximal binding).
Source text: as §1
(§3) With the H383R, T400N and R531G mutants there were large increases in B0.5 (6-, 8- and 10-fold) with no significant change in Hill coefficient.
as §2

The target in assay [4] is T4, AMPK-γ2 CBS1-4 (T400N) (Homo sapiens, UniProt Q9UGJ0, T400N).
T4 construct: all four CBS domains (CBS1-4, residues 274-569); made in house; host or cells: E. coli BL21 (DE3)
T4 sequence (Q9UGJ0 274-569 T400N): as the sequence (Q9UGJ0 274-569) above, with T127N counted along it
The experiment in a line: Filter binding assay, GST-CBS domain fusion. As to conditions: for Kd: two site Hill plot model, read-out: B0.5. Here is the method: as §3, §2

Assay [5] has as its target T5, AMPK-γ2 CBS1-4 (Lins) (Homo sapiens, UniProt Q9UGJ0, INS350L).
T5 construct: fused on or other part: GST at the N-terminus followed by a hexaglycine spacer (pGEX-KG)
The experiment in a line: Filter binding assay, GST-CBS domain fusion. As to conditions: for Kd: two site Hill plot model, read-out: B0.5. Here is the method: as §3, §2

For assay [6], the target named is T6, AMPK-γ2 CBS1-4 (H383R) (Homo sapiens, UniProt Q9UGJ0, H383R).
T6 construct: all four CBS domains (CBS1-4, residues 274-569); made in house; host or cells: E. coli BL21 (DE3)
T6 sequence (Q9UGJ0 274-569 H383R): as the sequence (Q9UGJ0 274-569) above, with H110R counted along it
Briefly: Filter binding assay, GST-CBS domain fusion. As to conditions: for Kd: two site Hill plot model, read-out: B0.5. Here is the method:
as §3, §2

The target in assay [7] is T7, AMPK-γ2 CBS1-4 (R302Q) (Homo sapiens, UniProt Q9UGJ0, R302Q).
T7 construct: all four CBS domains (CBS1-4, residues 274-569); made in house; host or cells: E. coli BL21 (DE3)
T7 sequence (Q9UGJ0 274-569 R302Q): as the sequence (Q9UGJ0 274-569) above, with R29Q counted along it
Briefly: Filter binding assay, GST-CBS domain fusion. As to conditions: for Kd: two site Hill plot model, read-out: B0.5. The method, then: as §3, §2

In assay [8] the target is T8, AMPK-γ2 CBS1-4 (R531G) (Homo sapiens, UniProt Q9UGJ0, R531G).
T8 construct: all four CBS domains (CBS1-4, residues 274-569); made in house; host or cells: E. coli BL21 (DE3)
T8 sequence (Q9UGJ0 274-569 R531G): as the sequence (Q9UGJ0 274-569) above, with R258G counted along it
Briefly: Filter binding assay, GST-CBS domain fusion. The settings on record: for Kd: two site Hill plot model, read-out: B0.5. Here is the method:
as §3, §2

Where “and” joins values, the source holds several entries; their conditions need not be identical. Identical values can stand only once. Like-named read-outs stand apart in the source and are kept apart here.

T5 sequence (Q9UGJ0 with tags, fused parts or gaps INS350L): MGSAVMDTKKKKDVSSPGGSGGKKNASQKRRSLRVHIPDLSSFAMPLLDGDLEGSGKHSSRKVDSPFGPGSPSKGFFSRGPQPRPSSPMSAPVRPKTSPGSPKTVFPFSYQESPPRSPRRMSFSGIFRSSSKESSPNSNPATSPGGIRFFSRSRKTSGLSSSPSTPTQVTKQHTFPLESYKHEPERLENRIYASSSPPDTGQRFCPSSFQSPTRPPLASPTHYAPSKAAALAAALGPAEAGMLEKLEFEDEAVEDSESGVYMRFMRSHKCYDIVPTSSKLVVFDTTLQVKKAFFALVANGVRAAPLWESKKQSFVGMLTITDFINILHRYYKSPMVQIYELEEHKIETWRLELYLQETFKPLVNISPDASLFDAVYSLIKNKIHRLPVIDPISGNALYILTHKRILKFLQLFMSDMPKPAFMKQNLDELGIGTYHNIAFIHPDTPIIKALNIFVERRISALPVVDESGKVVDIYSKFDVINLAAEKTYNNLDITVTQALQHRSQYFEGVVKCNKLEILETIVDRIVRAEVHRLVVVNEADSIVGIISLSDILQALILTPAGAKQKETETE
T1 sequence (P12268 112-232): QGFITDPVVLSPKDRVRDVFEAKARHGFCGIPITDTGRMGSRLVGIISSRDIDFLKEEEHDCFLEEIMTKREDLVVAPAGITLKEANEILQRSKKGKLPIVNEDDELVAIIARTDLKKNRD

Consider `Nc1ncnc2c1ncn2[C@@H]1O[C@H](COP(=O)(O)O)[C@@H](O)[C@H]1O` [AMP, adenosine monophosphate], for which the Kd in assay [1] came to 437 ± 53 µM; in assay [2] it was 53 ± 5 µM; in assay [3], 61 µM; in assay [4] it was 1360 ± 47 µM; in assay [5], 130 ± 4 µM; in assay [6] it was 725 ± 36 µM. Moreover, the Kd in assay [7] worked out at 158 ± 9 µM; in assay [8], 2800 ± 220 µM. In addition, in assay [2] ([14C]AMP), the “maximal binding (Bmax)” value was 0.95±0.05 moles of AMP per mole of protein. Also, the “h (Hill coefficient)” value in assay [3] is listed as 2.2 ± 0.1; in assay [4], 1.8 ± 0.1; in assay [5] it was 1.8 ± 0.1; in assay [6], 1.8 ± 0.2; in assay [7], 1.9 ± 0.2; in assay [8], 1.6 ± 0.2. Moreover, the “increase in B0.5 relative to wild type” value in assay [4] worked out at 22 fold; in assay [6] it was 12 fold; in assay [8] it was 46 fold. Moreover, the “change in B0.5 relative to wild type” value in assay [7] was determined as 2.6 fold.
On to `Nc1ncnc2c1ncn2[C@@H]1O[C@H](COP(=O)(O)OP(=O)(O)OP(=O)(O)O)[C@@H](O)[C@H]1O` [ATP], for which the Kd in assay [1] was 54 µM; in assay [2] (single-site model, 5 mM MgCl2 included for ATP), 175 ± 17 µM; in assay [3] it was 257 ± 14 µM; in assay [4], 2000 ± 160 µM; in assay [5] it was 335 ± 28 µM; in assay [6], 1470 ± 55 µM. Moreover, the Kd in assay [7] stood at 193 ± 25 µM; in assay [8], 2550 ± 230 µM. Moreover, the “h (Hill coefficient)” value in assay [3] was 2.2 and 2.2 ± 0.2; in assay [4], 1.7 ± 0.2; in assay [5], 1.8 ± 0.2; in assay [6] it was 2.4 ± 0.2; in assay [7], 1.3 and 1.3 ± 0.2; in assay [8], 2.7 ± 0.5.
